Source: patent US8569268B2, “Acrylate/methacrylate-based diblock copolymer/anthranilic diamide compositions for propagule coating” (E I du Pont de Nemours and Company, priority 2010, dated 2013)

Test system: Spodoptera frugiperda
Experiment: Laboratory test with 2nd instar larva of Spodoptera frugiperda on maize leaves
Format: in vivo

CNC(=O)c1cc(Cl)cc(C)c1NC(=O)c1cc(Br)nn1-c1ncccc1Cl [Compound 2, 3-bromo-N-[4-chloro-2-methyl-6-[(methylamino)carbonyl]phenyl]-1-(3-chloro-2-pyridinyl)-1H-pyrazole-5-carboxamide]
concentration needed to achieve 100% mortality within 72 h: 0.037 micrograms per g of tissue | concentration resulting in 50% mortality within 72 h: 0.033 micrograms per g of leaf tissu
